Test results from paper PMC10526447 (Biomolecules, 2023).
pIC50: −log10 of the molar value. Where two headings read alike, the source gives them in different places. Positions of bridges follow the written chain, without caps; N, C: chain ends. No end group written: not given here.

Columns and labels:
[1] = test system: Pseudotyped SARS-CoV-2 BA.2; settings: Pseudotyped BA.2, 48 h
[2] = test system: Pseudotyped SARS-CoV-2 BQ.1.1; settings: Pseudotyped BQ.1.1, 48 h
[3] = test system: Pseudotyped SARS-CoV-2 BA.5; settings: Pseudotyped BA.5, 48 h
[4] = test system: Pseudotyped SARS-CoV-2 BA.2.12.1; settings: Pseudotyped BA.2.12.1, 48 h
[5] = test system: Pseudotyped SARS-CoV-2 BA.4.6; settings: Pseudotyped BA.4.6, 48 h
[6] = test system: live SARS-CoV-2 Delta variant (B.1.617.2); settings: live Delta variant (B.1.617.2, 2 h)
[7] = test system: Pseudotyped SARS-CoV-2 BA.1; settings: Pseudotyped BA.1, 48 h
[8] = test system: Pseudotyped SARS-CoV-2 BF.7; settings: Pseudotyped BF.7, 48 h
[9] = test system: Pseudotyped SARS-CoV-2 XBB; settings: 48 h
[10] = test system: Pseudotyped SARS-CoV-2 BA.2.75; settings: Pseudotyped BA.2.75, 48 h
[11] = test system: Pseudotyped SARS-CoV-2 B.1.617.2 (Delta); settings: Pseudotyped B.1.617.2 (Delta, 48 h)
[12] = test system: Pseudotyped SARS-CoV-2 B.1.1.7 (Alpha); settings: Pseudotyped B.1.1.7 (Alpha, 48 h)
[13] = test system: Pseudotyped SARS-CoV-2 P.1 (Gamma); settings: Pseudotyped P.1 (Gamma, 48 h)
[14] = test system: Pseudotyped SARS-CoV-2 C.37; settings: Pseudotyped C.37, 48 h
[15] = test system: Pseudotyped SARS-CoV-2 P.1 (Gamma); settings: Pseudotyped P.1 (Gamma, 48 h); remark: listed apart in the source
[16] = test system: Pseudotyped SARS-CoV-2 B.1.351 (Beta); settings: Pseudotyped B.1.351 (Beta, 48 h)
[17] = test system: Pseudotyped SARS-CoV-2 B.1.617.2 (Delta); settings: Pseudotyped B.1.617.2 (Delta, 48 h); remark: listed apart in the source
[18] = test system: Pseudotyped SARS-CoV-2 C.37; settings: Pseudotyped C.37, 48 h; remark: listed apart in the source
[19] = test system: Pseudotyped SARS-CoV-2 N501Y; settings: 48 h
[20] = test system: Pseudotyped SARS-CoV-2 N501Y; settings: 48 h; remark: listed apart in the source
[21] = test system: Pseudotyped SARS-CoV-2 B.1.351 (Beta); settings: Pseudotyped B.1.351 (Beta, 48 h); remark: listed apart in the source
[22] = test system: Pseudotyped SARS-CoV-2 B.1.1.7 (Alpha); settings: Pseudotyped B.1.1.7 (Alpha, 48 h); remark: listed apart in the source

Row | Molecule | pIC50 [1] | pIC50 [2] | pIC50 [3] | pIC50 [4] | pIC50 [5] | pIC50 [6] | pIC50 [7] | pIC50 [8] | pIC50 [9] | pIC50 [10] | further results
1 | CC[C@H](C)[C@H](NC(=O)[C@H](C)NC(=O)[C@H](CCC(=O)O)NC(=O)[C@H](CCC(=O)O)NC(=O)[C@H](CC(C)C)NC(=O)[C@H](CCCCN)NC(=O)[C@H](CCCCN)NC(=O)[C@H](CCSC)NC(=O)[C@H](CCC(=O)O)NC(=O)[C@H](Cc1ccc(O)cc1)NC(=O)[C@H](CCC(=O)O)NC(=O)[C@H](CC(C)C)NC(=O)[C@H](CC(=O)O)NC(=O)[C@H](CC(C)C)NC(=O)[C@H](Cc1ccccc1)NC(=O)[C@@H](NC(=O)[C@@H](NC(=O)[C@H](CC(N)=O)NC(=O)[C@@H](NC(=O)[C@H](CCC(N)=O)NC(=O)[C@H](CC(=O)O)NC(=O)[C@H](CC(C)C)NC(=O)[C@@H](N)CO)[C@@H](C)CC)C(C)C)[C@@H](C)O)C(=O)N[C@@H](CCCCN)C(=O)N[C@@H](CCCCN)C(=O)N[C@@H](CC(C)C)C(=O)N[C@@H](CCC(=O)O)C(=O)N[C@@H](CCC(=O)O)C(=O)N[C@@H](CO)C(=O)N[C@@H](Cc1ccc(O)cc1)C(=O)N[C@H](C(=O)N[C@@H](CC(=O)O)C(=O)N[C@@H](CC(C)C)C(=O)N[C@@H](CCCCN)C(=O)N[C@@H](CCC(=O)O)C(=O)N[C@@H](CC(C)C)C(=O)O)[C@@H](C)CC [EK1] | 6.26 | 6.42 | 6.16 | 6.23 | 6.70 | 6.53 | 6.48 | 6.59 | 6.44 | 6.61 | –
2 | CC(C)C[C@@H]1NC(=O)[C@H](Cc2c[nH]cn2)NC(=O)[C@H](Cc2c[nH]c3ccccc23)NC(=O)[C@H](C)NC(=O)[C@@H](NC(=O)[C@@H](N)CC(=O)O)CSSC[C@@H](C(=O)N[C@H](C(=O)O)[C@@H](C)O)NC(=O)[C@H](Cc2c[nH]c3ccccc23)NC(=O)[C@H](C(C)C)NC(=O)[C@H](CC(C)C)NC(=O)[C@H](CCC(=O)O)NC(=O)CNC1=O [IBP] | < 4.30 | < 4.30 | < 4.30 | < 4.30 | < 4.30 | < 4.30 | < 4.30 | < 4.30 | < 4.30 | < 4.30 | pIC50 [11]: < 4.30; pIC50 [12]: < 4.30; pIC50 [13]: < 4.30; pIC50 [14]: < 4.30; pIC50 [15]: < 4.30; pIC50 [16]: < 4.30; pIC50 [17]: < 4.30; pIC50 [18]: < 4.30; pIC50 [19]: < 4.30; pIC50 [20]: < 4.30; pIC50 [21]: < 4.30; pIC50 [22]: < 4.30
3 | DCAWHLGELVWCTSLDQINVTFLDLEYEMKKLEEAIKKLEESYIDLKEL (disulfide 2-12) [IBP-EK1] | 6.40 | 6.47 | 6.25 | 6.28 | 6.71 | 6.69 | 6.52 | 6.59 | 6.48 | 6.66 | –
